This note sets out measurements from ChEMBL document CHEMBL1811856 (J Med Chem, 2011).

By pKi is commonly meant the Ki on a negative log10 scale, so that one unit is a factor of ten. A higher pKi goes with a low Ki.

pKi: −log10 of the molar value. Where only a bound is given, the exact number is not on record here.

Test [1] in a line: Displacement of [3H]spiperone from dopamine D2 like receptor in porcine striatal membranes after 30 mins by scintillation counting. In kind it is cell membranes, Sus scrofa, Striatum, Membrane.
Test [2] can be described thus: Displacement of [3H]SCH-23390 from dopamine D1 like receptor in porcine striatal membranes after 30 mins by scintillation counting. Format: cell membranes, Sus scrofa, Striatum, Membrane. In general terms: Loss of bound radioactivity is the signal in a displacement assay; it reports binding, not function.
The species named for another test is Sus scrofa. In words: Selectivity ratio Ki for dopamine D2 like receptor in porcine striatal membranes to Ki for dopamine D1 like receptor in porcine striatal membranes. In kind it is cell membranes.

`Oc1cc2c(cc1O)[C@H]1c3ccccc3CN[C@@H]1CC2` (racemic) [DIHYDREXIDINE] showed a negative logarithm of the Ki (pKi) in test [1] of 6.62.
Regarding `C[C@@H]1C[C@H]2NCc3ccccc3[C@@H]2c2cc(O)c(O)cc21` (racemic), the figures for the pKi in test [2] and in test [1] were 6.57 and 5.26, respectively. The Ratio Ki in the test filed under Sus scrofa came to 20.
As for `C[C@H]1C[C@H]2NCc3ccccc3[C@@H]2c2cc(O)c(O)cc21` (racemic), the figures for the pKi in test [2] and in test [1] were 6.04 and 5.44, respectively. Besides, in the test listed under Sus scrofa, the Ratio Ki turned out to be 3.9.
`C[C@@H]1Cc2cc(O)c(O)cc2[C@H]2c3ccccc3CN[C@@H]21`: the pKi in test [2] is less than 5.00; in test [1], 5.13. Also, in the test listed under Sus scrofa, the Ratio Ki is less than 0.74.
For `C[C@H]1Cc2cc(O)c(O)cc2[C@H]2c3ccccc3CN[C@@H]21` (racemic), the figures for the pKi in test [2] and in test [1] were 5.18 and 5.06, respectively. The Ratio Ki in the test filed under Sus scrofa stood at 1.3.
